From ChEMBL document CHEMBL1201862, “PubChem BioAssay data set” (2004)
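Each compound was tested at five concentrations against cells in 96-well plates for 48 hours. The concentration for 50% growth inhibition is given as GI50.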 Calls of active or inactive are those of the source. Cut-off read from the data, not from the text of the source: active = GI50 up to about 1.1 µM and inactive = higher.

What was measured:
Assay in all cases: NCI-60 cell line screen, 48 h
786-0 = test system: 786-0
A549 = test system: A549
ACHN = test system: ACHN
BT-549 = test system: BT-549
CAKI-1 = test system: CAKI-1
CCRF-CEM = test system: CCRF-CEM
COLO 205 = test system: COLO 205
DU-145 = test system: DU-145
EKVX = test system: EKVX
HCC 2998 = test system: HCC 2998
HCT-116 = test system: HCT-116
HCT-15 = test system: HCT-15
HL-60 = test system: HL-60
HOP-62 = test system: HOP-62
HT-29 = test system: HT-29
Hs-578T = test system: Hs-578T
IGROV-1 = test system: IGROV-1
K562 = test system: K562
KM12 = test system: KM12
LOX IMVI = test system: LOX IMVI
M14 = test system: M14
MCF7 = test system: MCF7
MDA-MB-231 = test system: MDA-MB-231
MDA-N = test system: MDA-N
MOLT-4 = test system: MOLT-4
Malme-3M = test system: Malme-3M
NCI-H226 = test system: NCI-H226
NCI-H23 = test system: NCI-H23
NCI-H460 = test system: NCI-H460
NCI-H522 = test system: NCI-H522
NCI/ADR-RES = test system: NCI/ADR-RES
OVCAR-4 = test system: OVCAR-4
OVCAR-5 = test system: OVCAR-5
OVCAR-8 = test system: OVCAR-8
PC-3 = test system: PC-3
RPMI-8226 = test system: RPMI-8226
RXF 393 = test system: RXF 393
SF-268 = test system: SF-268
SF-295 = test system: SF-295
SF-539 = test system: SF-539
SK-MEL-28 = test system: SK-MEL-28
SK-MEL-2 = test system: SK-MEL-2
SK-MEL-5 = test system: SK-MEL-5
SK-OV-3 = test system: SK-OV-3
SN12C = test system: SN12C
SNB-19 = test system: SNB-19
SNB-75 = test system: SNB-75
SR = test system: SR
SW-620 = test system: SW-620
T47D = test system: T47D
TK-10 = test system: TK-10
U-251 = test system: U-251
UACC-257 = test system: UACC-257
UACC-62 = test system: UACC-62
UO-31 = test system: UO-31
A498 = test system: A498
HOP-92 = test system: HOP-92
MDA-MB-435 = test system: MDA-MB-435
OVCAR-3 = test system: OVCAR-3

CC(=O)NC1c2ccccc2C(C)(C)C12CCC1(CC2)OCCO1 (configuration not stated) was tested, and the GI50 (786-0) was > 100 µM (inactive), the GI50 (A549) was > 100 µM (inactive) and the GI50 (ACHN) was > 100 µM (inactive). For the same molecule, the GI50 (BT-549) was > 100 µM (inactive), the GI50 (CAKI-1) was > 100 µM (inactive) and the GI50 (CCRF-CEM) was > 100 µM (inactive). The GI50 (COLO 205) was > 100 µM (inactive), the GI50 (DU-145) was > 100 µM (inactive) and the GI50 (EKVX) was > 100 µM (inactive). For the same molecule, the GI50 (HCC 2998) was > 100 µM (inactive), the GI50 (HCT-116) was > 100 µM (inactive) and the GI50 (HCT-15) was > 100 µM. For the same molecule, the GI50 (HL-60) was > 100 µM (inactive), the GI50 (HOP-62) was > 100 µM (inactive) and the GI50 (HT-29) was > 100 µM (inactive). The GI50 (Hs-578T) was > 100 µM (inactive), the GI50 (IGROV-1) was > 100 µM (inactive) and the GI50 (K562) was > 100 µM (inactive). The GI50 (KM12) was > 100 µM (inactive), the GI50 (LOX IMVI) was > 100 µM (inactive) and the GI50 (M14) was > 100 µM (inactive). For the same molecule, the GI50 (MCF7) was > 100 µM (inactive), the GI50 (MDA-MB-231) was > 100 µM (inactive) and the GI50 (MDA-N) was > 100 µM (inactive). For the same molecule, the GI50 (MOLT-4) was > 100 µM (inactive), the GI50 (Malme-3M) was 98.6 µM (inactive) and the GI50 (NCI-H226) was > 100 µM (inactive). For the same molecule, the GI50 (NCI-H23) was > 100 µM (inactive), the GI50 (NCI-H460) was > 10 µM (inactive) and the GI50 (NCI-H522) was > 100 µM (inactive). The GI50 (NCI/ADR-RES) was > 100 µM (inactive), the GI50 (OVCAR-4) was > 100 µM (inactive) and the GI50 (OVCAR-5) was > 100 µM (inactive). For the same molecule, the GI50 (OVCAR-8) was > 100 µM (inactive), the GI50 (PC-3) was > 100 µM (inactive) and the GI50 (RPMI-8226) was > 100 µM (inactive). The GI50 (RXF 393) was 37.9 µM (inactive), the GI50 (SF-268) was > 100 µM (inactive) and the GI50 (SF-295) was > 100 µM (inactive). The GI50 (SF-539) was > 100 µM (inactive), the GI50 (SK-MEL-28) was > 100 µM (inactive) and the GI50 (SK-MEL-2) was > 100 µM (inactive). The GI50 (SK-MEL-5) was > 100 µM (inactive), the GI50 (SK-OV-3) was > 10 µM (inactive) and the GI50 (SN12C) was > 10 µM (inactive). The GI50 (SNB-19) was > 100 µM (inactive), the GI50 (SNB-75) was > 100 µM (inactive) and the GI50 (SR) was > 100 µM (inactive). The GI50 (SW-620) was > 100 µM (inactive), the GI50 (T47D) was > 100 µM (inactive) and the GI50 (TK-10) was > 100 µM (inactive). The GI50 (U-251) was > 100 µM (inactive), the GI50 (UACC-257) was > 100 µM (inactive) and the GI50 (UACC-62) was > 100 µM (inactive). The GI50 (UO-31) was > 100 µM (inactive).

For COc1ccc(Cn2c3c(cc(OS(=O)(=O)C(F)(F)F)c2=O)Cc2ccccc2-3)cc1, the GI50 (786-0) was 4.89 µM (inactive), the GI50 (A498) was > 50 µM (inactive) and the GI50 (A549) was 16.5 µM (inactive). The GI50 (ACHN) was 21.6 µM (inactive), the GI50 (BT-549) was 24.9 µM (inactive) and the GI50 (CAKI-1) was 20.9 µM (inactive). The GI50 (CCRF-CEM) was 6.27 µM (inactive), the GI50 (COLO 205) was 9.95 µM (inactive) and the GI50 (DU-145) was 20.2 µM (inactive). For the same molecule, the GI50 (EKVX) was 20.4 µM (inactive), the GI50 (HCC 2998) was 11.7 µM (inactive) and the GI50 (HCT-116) was 14.9 µM (inactive). The GI50 (HCT-15) was 3.22 µM, the GI50 (HL-60) was 10.7 µM (inactive) and the GI50 (HOP-62) was 21.9 µM (inactive). For the same molecule, the GI50 (HOP-92) was 22.3 µM (inactive), the GI50 (HT-29) was > 50 µM (inactive) and the GI50 (Hs-578T) was > 50 µM (inactive). For the same molecule, the GI50 (IGROV-1) was 22.5 µM (inactive), the GI50 (K562) was 21.5 µM (inactive) and the GI50 (KM12) was 26.4 µM (inactive). For the same molecule, the GI50 (LOX IMVI) was 10 µM (inactive), the GI50 (M14) was 6.65 µM (inactive) and the GI50 (MDA-MB-231) was > 50 µM (inactive). The GI50 (MDA-MB-435) was 19.3 µM (inactive), the GI50 (MDA-N) was 12.9 µM (inactive) and the GI50 (MOLT-4) was 12 µM (inactive). The GI50 (Malme-3M) was 16.2 µM (inactive), the GI50 (NCI-H226) was 26.7 µM (inactive) and the GI50 (NCI-H23) was 19.7 µM (inactive). The GI50 (NCI-H460) was 3.56 µM (inactive), the GI50 (NCI-H522) was 22 µM (inactive) and the GI50 (NCI/ADR-RES) was 2.29 µM (inactive). For the same molecule, the GI50 (OVCAR-3) was 9.53 µM (inactive), the GI50 (OVCAR-4) was 19.3 µM (inactive) and the GI50 (OVCAR-5) was 20.3 µM (inactive). The GI50 (OVCAR-8) was 13.3 µM (inactive), the GI50 (PC-3) was > 50 µM (inactive) and the GI50 (RPMI-8226) was 32.8 µM (inactive). For the same molecule, the GI50 (RXF 393) was 29.9 µM (inactive), the GI50 (SF-268) was 12.8 µM (inactive) and the GI50 (SF-295) was 18.9 µM (inactive). For the same molecule, the GI50 (SF-539) was 10.3 µM (inactive), the GI50 (SK-MEL-28) was 18.7 µM (inactive) and the GI50 (SK-MEL-2) was 45.6 µM (inactive). The GI50 (SK-MEL-5) was 10.4 µM (inactive), the GI50 (SK-OV-3) was 25.1 µM (inactive) and the GI50 (SN12C) was 16.9 µM (inactive). For the same molecule, the GI50 (SNB-19) was 19.1 µM (inactive), the GI50 (SNB-75) was > 50 µM (inactive) and the GI50 (SR) was 4.36 µM (inactive). The GI50 (SW-620) was 10.3 µM (inactive), the GI50 (T47D) was 32.3 µM (inactive) and the GI50 (TK-10) was 22.3 µM (inactive). For the same molecule, the GI50 (U-251) was 19.2 µM (inactive), the GI50 (UACC-257) was 11.9 µM (inactive) and the GI50 (UACC-62) was 10.5 µM (inactive). For the same molecule, the GI50 (UO-31) was 7.33 µM (inactive).

For Cc1cc(O)c2c(c1O)C(=O)C1=C(C2=O)C(=O)C2C(O)C1C1C(O)CC(O)=C3C(=O)c4c(O)cc(C)c(O)c4C(=O)C321 (configuration not stated), the GI50 (786-0) was 1.71 µM (inactive), the GI50 (A498) was 1.27 µM (inactive) and the GI50 (A549) was 0.693 µM (active). For the same molecule, the GI50 (ACHN) was 1.35 µM (inactive), the GI50 (BT-549) was 3.66 µM (inactive) and the GI50 (CAKI-1) was 1.75 µM (inactive). The GI50 (CCRF-CEM) was 0.577 µM (active), the GI50 (COLO 205) was 0.834 µM (active) and the GI50 (DU-145) was 1.32 µM (inactive). For the same molecule, the GI50 (EKVX) was 1.98 µM (inactive), the GI50 (HCC 2998) was 1.18 µM (inactive) and the GI50 (HCT-116) was 0.541 µM (active). The GI50 (HCT-15) was 2.04 µM, the GI50 (HL-60) was 1.1 µM (active) and the GI50 (HOP-62) was 2.48 µM (inactive). For the same molecule, the GI50 (HT-29) was 0.555 µM (active), the GI50 (Hs-578T) was 0.553 µM (active) and the GI50 (IGROV-1) was 2.36 µM (inactive). The GI50 (K562) was 0.506 µM (active), the GI50 (KM12) was 0.697 µM (active) and the GI50 (LOX IMVI) was 1.57 µM (inactive). The GI50 (M14) was 2.3 µM (inactive), the GI50 (MCF7) was 2.62 µM (inactive) and the GI50 (MDA-MB-231) was 2.64 µM (inactive). For the same molecule, the GI50 (MDA-MB-435) was 1.36 µM (inactive), the GI50 (MDA-N) was 1.44 µM (inactive) and the GI50 (MOLT-4) was 1.52 µM (inactive). The GI50 (Malme-3M) was 0.982 µM (active), the GI50 (NCI-H226) was 0.885 µM (active) and the GI50 (NCI-H23) was 2.73 µM (inactive). The GI50 (NCI-H460) was 1.46 µM (inactive), the GI50 (OVCAR-3) was 1.3 µM (inactive) and the GI50 (OVCAR-4) was 6.04 µM (inactive). The GI50 (OVCAR-5) was 3.62 µM (inactive), the GI50 (OVCAR-8) was 1.06 µM (active) and the GI50 (PC-3) was 0.628 µM (active). For the same molecule, the GI50 (RPMI-8226) was 0.164 µM (active), the GI50 (SF-268) was 2.28 µM (inactive) and the GI50 (SF-295) was 0.386 µM (active). For the same molecule, the GI50 (SF-539) was 1.94 µM (inactive), the GI50 (SK-MEL-28) was 1.55 µM (inactive) and the GI50 (SK-MEL-2) was 1.73 µM (inactive). For the same molecule, the GI50 (SK-MEL-5) was 1.65 µM (inactive), the GI50 (SK-OV-3) was 2.24 µM (inactive) and the GI50 (SN12C) was 2.12 µM (inactive). The GI50 (SNB-19) was 1.2 µM (inactive), the GI50 (SNB-75) was 1.03 µM (active) and the GI50 (SR) was 2.36 µM (inactive). The GI50 (SW-620) was 1.45 µM (inactive), the GI50 (T47D) was 1.24 µM (inactive) and the GI50 (TK-10) was 3.14 µM (inactive). For the same molecule, the GI50 (U-251) was 0.658 µM (active), the GI50 (UACC-257) was 0.789 µM (active) and the GI50 (UACC-62) was 1.12 µM (active).
